Measurements published in patent US3943137A, “Acronycine derivatives” (University of Kansas Endowment Association, priority 1973, dated 1976).
≈ marks a conversion by molar mass, not a printed value. Where two headings read alike, the source gives them in different places.

Assays:
Solubility = assay type: physicochemical; details: water
mouse neoplasms = details: cited from earlier work
adenocarcinoma 755 = details: oral and subcutaneous routes; cited from earlier work
C-1498 leukemia = details: oral and subcutaneous routes; cited from earlier work
X-5563 myeloma = details: oral and subcutaneous routes; cited from earlier work
[1] = subcutaneous; cited from earlier work
[2] = intravenous; several instances; autopsy; cited from earlier work
[3] = acronycine free base; cited from earlier work

For `COc1cc2c(c3c1c(=O)c1ccccc1n3C)C=CC(C)(C)O2` [acronycine], the “solubility (qualitative)” value (Solubility; acetone, benzene, listed as base) is given as “soluble in acetone and benzene, insoluble in water”, the solubility (Solubility; read-out: solubility in water) is given as 2 to 3 µg/mL (≈ 6.22 to 9.33 µM) and the “reduction in the size of tumors” value (mouse neoplasms; aqueous suspension, Svoboda et al) is given as “significant reductions in the size of a number of tumors”. For the same molecule, the “activity in delayed therapy experiments” value (mouse neoplasms; delayed therapy) was “significant activity in delayed therapy experiments”, the “antitumor activity, intravenous” value (mouse neoplasms; intravenous, free base) was “only minimum activity” and the “effectiveness by routes of administration” value (mouse neoplasms; various routes) was “effective by various routes of administration”. For the same molecule, the “tumors against which significant activity was demonstrated” value (mouse neoplasms; wide range of dose levels, Svoboda laboratory) was 12 of 17, the “activity against adenocarcinoma 755” value (adenocarcinoma 755) was “significant activity” and the “activity against C-1498 leukemia” value (C-1498 leukemia) was “significant activity”. The “activity against X-5563 myeloma” value (X-5563 myeloma) was “significant activity”, the “skin irritation or alopecia” value [1] was “no evidence of skin irritation or alopecia” and the “blockage of the circulatory system” value [2] was “blockage of the circulatory system was evidenced, autopsy revealing an actual aortic block by the compound itself”. The solubility [3] was 2 to 3 mg/L.
